{
  "source": "paper PMC7866587",
  "about": "“Cell cycle arrest and apoptosis induction by Juniperus communis extract in esophageal squamous cell carcinoma through activation of p53‐induced apoptosis pathway” (Food Science & Nutrition, 2020)",
  "key": {"MDCK cells": {"tested_on": "MDCK cells", "assay": "MTT cell viability assay (normal cells)", "type": "cell-based, cannis", "settings": "Canis lupus familiaris, mean ± SD", "protocol": "(§1) CE81T/VGH (human esophageal squamous cell carcinoma), CE48T/VGH (human esophageal epidermoid carcinoma (VGH), SVEC (mouse vascular endothelial cell) and MDCK (cannis kidney epithelial cells) were purchased from the Food Industry Research and Development Institute. CE81T/VGH, CE48T/VGH, SVEC, and MDCK were cultured in Dulbecco's Modified Eagle Medium supplemented with 10% fetal bovine serum (Gibco BRL), 10 mM HEPES (Gibco), 1 mM pyruvate (Gibco), P/S (100 μg/ml penicillin, and 100 μg/ml streptomycin; Gibco), and non‐essential amino acids (Gibco, CE81T/VGH and CE48T/VGH only). Cells were grown in 10 cm^2 culture dishes in a humidified atmosphere with 5% CO2 at 37°C. The TP53 in the CE81T/VGH cells was mutated, which was detected using automated extraction of nucleic acids (AccuBioMed Co., Ltd.) and Femtopath Human Primer Sets (HongJing Biotech). JCo was purchased from the PHOENIX company and extracted using steam distillation. The clinical drug 5‐Fluorouracil (5‐FU; Sigma) was prepared in dimethyl sulfoxide (DMSO) in each in vitro experiment. Cells were treated with equivalent amounts of DMSO in the control and treatment groups, and the final concentration of DMSO in each experiment was 0.01%–0.5%.\n(§2) The viability of CE81T/VGH, CE48T/VGH, MDCK, and SVEC cells was determined using a modified 3‐(4,5‐dimethylthiazol‐2‐yl)‐2,5‐diphenyltetrazolium bromide (MTT) assay. Cells were cultured in a 96‐well plate at a density of 5 × 10^3 cells/well for 24 hr and treated with different concentrations of JCo extract or 5‐FU for 24, 48, and 72 hr. MTT was dissolved in the base medium (400 μg/mL, Sigma), and 100 μl of solution was added into each well and incubated for 6–8 hr. The MTT formazan crystals were dissolved in 50 μL DMSO and the optical density (O.D.) was detected using a microplate reader (Molecular Devices, Spec384) at 550 nm. Cell viability was calculated as the O.D. percentage relative to the controls. The half‐maximal inhibitory concentration (IC50) value of JCo extract was measured from the cell viability assay."}, "SVEC cells": {"tested_on": "SVEC cells", "assay": "MTT cell viability assay (normal cells)", "type": "cell-based", "settings": "Mus musculus, mean ± SD", "protocol": "as §1, §2"}, "CE48T/VGH cells": {"tested_on": "CE48T/VGH cells", "assay": "MTT cell viability assay", "type": "cell-based, human", "settings": "mean ± SD; for IC50: Homo sapiens", "protocol": "as §1, §2"}, "CE81T/VGH cells": {"tested_on": "CE81T/VGH cells", "assay": "MTT cell viability assay", "type": "cell-based, human", "settings": "for IC50: Homo sapiens, CE81T/VGH, mean ± SD", "protocol": "as §1, §2"}},
  "data": [
    {"smiles": "O=c1[nH]cc(F)c(=O)[nH]1", "note": "[5‐FU, 5‐fluorouracil]", "values": [
      {"measurement": "IC50", "setting": "MDCK cells; 24 hr", "value": "> 20", "unit": "µg/mL"},
      {"measurement": "IC50", "setting": "MDCK cells; 48 hr", "value": "< 0.63", "unit": "µg/mL"},
      {"measurement": "IC50", "setting": "MDCK cells; 72 hr", "value": "< 0.63", "unit": "µg/mL"},
      {"measurement": "IC50", "setting": "SVEC cells; 24 hr", "value": "3.53 ± 0.29", "unit": "µg/mL"},
      {"measurement": "IC50", "setting": "SVEC cells; 48 hr", "value": "< 0.63", "unit": "µg/mL"},
      {"measurement": "IC50", "setting": "SVEC cells; 72 hr", "value": "< 0.63", "unit": "µg/mL"},
      {"measurement": "IC50 (cell viability)", "setting": "CE48T/VGH cells; 48 hr", "value": "5.64 ± 0.34", "unit": "µg/mL"},
      {"measurement": "IC50", "setting": "CE48T/VGH cells; 24 hr", "value": "16 ± 0.03", "unit": "µg/mL"},
      {"measurement": "IC50", "setting": "CE48T/VGH cells; 72 hr", "value": "3.73 ± 0.06", "unit": "µg/mL"},
      {"measurement": "IC50", "setting": "CE81T/VGH cells; 24 hr", "value": "> 20", "unit": "µg/mL"},
      {"measurement": "IC50", "setting": "CE81T/VGH cells; 48 hr", "value": "15.3 ± 6.74", "unit": "µg/mL"},
      {"measurement": "IC50", "setting": "CE81T/VGH cells; 72 hr", "value": "1.62 ± 0.04", "unit": "µg/mL"},
      {"measurement": "selection for ESCC versus normal cells (from IC50 values)", "setting": "CE81T/VGH cells; after 48 and 72 hr", "value": "lower"},
      {"measurement": "selection between ESCC and normal cells (from IC50 values)", "setting": "CE81T/VGH cells; after 24 hr", "value": "no obvious selection"}
    ]}
  ]
}
